Here are results for five compounds from PubChem BioAssay (NCI).

Molecules are shown by their SMILES.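 Method: 48-hour compound exposure of cells in 96-well plates, five concentrations, linear interpolation of endpoints. TGI is the concentration that stops growth completely.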 A value given as a limit tells only on which side of the number the result lay.

For the first assay, the system named is A549 NSCLC. Kind of assay: NCI anticancer screen, dose series, 48 h.
As to `COc1ccc(CNc2cc(OC)c(OC)c(OC)c2)cc1`, the TGI was > 100 µM.
Same read-out and setting: as for `OCc1ccc2[n+](c1)CCC1c3ccccc3NC21` (stereo not given), the figure is > 300 µM; as for `CN(C(=O)C12C3C4C1C1C2C3C41C(=O)C(C)(C)C)C(C)(C)C` (stereo not given), > 100 µM; as for `COc1ccc(OC)c(NC(=O)C(=O)C(C(C)=O)c2nc3ccc(Cl)cc3[nH]c2=O)c1` (stereo not given), > 50 µM.
As to `N#CC(C(=N/O)/C(=N/O)C(C#N)c1ccc(Cl)cc1)c1ccc(Cl)cc1` (stereo not given), the TGI was > 100 µM.

A further assay deals with ACHN renal. Description: NCI anticancer screen, dose series, 48 h.
As for `COc1ccc(CNc2cc(OC)c(OC)c(OC)c2)cc1`, the TGI is > 100 µM.
`OCc1ccc2[n+](c1)CCC1c3ccccc3NC21` (stereo not given): the TGI was > 300 µM.
`CN(C(=O)C12C3C4C1C1C2C3C41C(=O)C(C)(C)C)C(C)(C)C` (stereo not given): the TGI was > 100 µM.
Still for that read-out and setting: as for `COc1ccc(OC)c(NC(=O)C(=O)C(C(C)=O)c2nc3ccc(Cl)cc3[nH]c2=O)c1` (stereo not given), the figure is > 50 µM; as for `N#CC(C(=N/O)/C(=N/O)C(C#N)c1ccc(Cl)cc1)c1ccc(Cl)cc1` (stereo not given), > 100 µM.

The test system of a further assay is CAKI-1 renal. Description: NCI anticancer screen, dose series, 48 h.
On to `COc1ccc(CNc2cc(OC)c(OC)c(OC)c2)cc1`, for which the TGI is > 100 µM.
Take `OCc1ccc2[n+](c1)CCC1c3ccccc3NC21` (stereo not given): the TGI was > 300 µM.
Consider `CN(C(=O)C12C3C4C1C1C2C3C41C(=O)C(C)(C)C)C(C)(C)C` (stereo not given), for which the TGI was > 100 µM.
For `COc1ccc(OC)c(NC(=O)C(=O)C(C(C)=O)c2nc3ccc(Cl)cc3[nH]c2=O)c1` (stereo not given), the TGI is > 50 µM.
In the case of `N#CC(C(=N/O)/C(=N/O)C(C#N)c1ccc(Cl)cc1)c1ccc(Cl)cc1` (stereo not given), the TGI is > 100 µM.

The subject of another assay is DLD-1 colon. Kind of assay: NCI anticancer screen, dose series, 48 h.
In the case of `COc1ccc(CNc2cc(OC)c(OC)c(OC)c2)cc1`, the TGI was > 100 µM.
With `OCc1ccc2[n+](c1)CCC1c3ccccc3NC21` (stereo not given), the TGI was > 300 µM.
As to `CN(C(=O)C12C3C4C1C1C2C3C41C(=O)C(C)(C)C)C(C)(C)C` (stereo not given), the TGI is > 100 µM.
`COc1ccc(OC)c(NC(=O)C(=O)C(C(C)=O)c2nc3ccc(Cl)cc3[nH]c2=O)c1` (stereo not given): the TGI is > 50 µM.
`N#CC(C(=N/O)/C(=N/O)C(C#N)c1ccc(Cl)cc1)c1ccc(Cl)cc1` (stereo not given): the TGI was > 100 µM.

The test system of another assay is DMS 114 small cell lung. Kind of assay: NCI anticancer screen, dose series, 48 h.
The compound `COc1ccc(CNc2cc(OC)c(OC)c(OC)c2)cc1` showed a TGI of 9.19 µM.
Same read-out and setting: the same measure for `OCc1ccc2[n+](c1)CCC1c3ccccc3NC21` (stereo not given): > 300 µM.
For `CN(C(=O)C12C3C4C1C1C2C3C41C(=O)C(C)(C)C)C(C)(C)C` (stereo not given), the TGI was > 100 µM.
As to `COc1ccc(OC)c(NC(=O)C(=O)C(C(C)=O)c2nc3ccc(Cl)cc3[nH]c2=O)c1` (stereo not given), the TGI is > 50 µM.
As to `N#CC(C(=N/O)/C(=N/O)C(C#N)c1ccc(Cl)cc1)c1ccc(Cl)cc1` (stereo not given), the TGI is > 100 µM.

A further assay concerns HCT-116 colon. Description: NCI anticancer screen, dose series, 48 h.
Consider `COc1ccc(CNc2cc(OC)c(OC)c(OC)c2)cc1`, for which the TGI was > 42.4 µM.
Take `OCc1ccc2[n+](c1)CCC1c3ccccc3NC21` (stereo not given): the TGI is > 300 µM.
On to `CN(C(=O)C12C3C4C1C1C2C3C41C(=O)C(C)(C)C)C(C)(C)C` (stereo not given), for which the TGI was > 100 µM.
Same read-out and setting: as for `COc1ccc(OC)c(NC(=O)C(=O)C(C(C)=O)c2nc3ccc(Cl)cc3[nH]c2=O)c1` (stereo not given), the figure is > 50 µM; as for `N#CC(C(=N/O)/C(=N/O)C(C#N)c1ccc(Cl)cc1)c1ccc(Cl)cc1` (stereo not given), > 100 µM.

In a further assay the test system is LOX IMVI melanoma. Kind of assay: NCI anticancer screen, dose series, 48 h.
For the compound `COc1ccc(CNc2cc(OC)c(OC)c(OC)c2)cc1`, the TGI is > 100 µM.
Regarding `OCc1ccc2[n+](c1)CCC1c3ccccc3NC21` (stereo not given), the TGI is > 300 µM.
As to `CN(C(=O)C12C3C4C1C1C2C3C41C(=O)C(C)(C)C)C(C)(C)C` (stereo not given), the TGI is > 100 µM.
On to `COc1ccc(OC)c(NC(=O)C(=O)C(C(C)=O)c2nc3ccc(Cl)cc3[nH]c2=O)c1` (stereo not given), for which the TGI was > 50 µM.
For the compound `N#CC(C(=N/O)/C(=N/O)C(C#N)c1ccc(Cl)cc1)c1ccc(Cl)cc1` (stereo not given), the TGI was > 100 µM.

Another assay concerns OVCAR-8 ovarian. Kind of assay: NCI anticancer screen, dose series, 48 h.
Consider `COc1ccc(CNc2cc(OC)c(OC)c(OC)c2)cc1`, for which the TGI is > 100 µM.
On to `OCc1ccc2[n+](c1)CCC1c3ccccc3NC21` (stereo not given), for which the TGI was > 300 µM.
As for `CN(C(=O)C12C3C4C1C1C2C3C41C(=O)C(C)(C)C)C(C)(C)C` (stereo not given), the TGI is > 100 µM.
Turning to `COc1ccc(OC)c(NC(=O)C(=O)C(C(C)=O)c2nc3ccc(Cl)cc3[nH]c2=O)c1` (stereo not given), the TGI was > 50 µM.
`N#CC(C(=N/O)/C(=N/O)C(C#N)c1ccc(Cl)cc1)c1ccc(Cl)cc1` (stereo not given): the TGI was > 100 µM.

A further assay deals with SF-539 CNS. Kind of assay: NCI anticancer screen, dose series, 48 h.
Take `COc1ccc(CNc2cc(OC)c(OC)c(OC)c2)cc1`: the TGI was 35.1 µM.
Turning to `OCc1ccc2[n+](c1)CCC1c3ccccc3NC21` (stereo not given), the TGI was > 300 µM.
Take `CN(C(=O)C12C3C4C1C1C2C3C41C(=O)C(C)(C)C)C(C)(C)C` (stereo not given): the TGI is > 100 µM.
With `COc1ccc(OC)c(NC(=O)C(=O)C(C(C)=O)c2nc3ccc(Cl)cc3[nH]c2=O)c1` (stereo not given), the TGI is > 50 µM.
`N#CC(C(=N/O)/C(=N/O)C(C#N)c1ccc(Cl)cc1)c1ccc(Cl)cc1` (stereo not given): the TGI is > 100 µM.

A further assay deals with TK-10 renal. Description: NCI anticancer screen, dose series, 48 h.
Turning to `COc1ccc(CNc2cc(OC)c(OC)c(OC)c2)cc1`, the TGI is > 100 µM.
Consider `OCc1ccc2[n+](c1)CCC1c3ccccc3NC21` (stereo not given), for which the TGI was > 300 µM.
For the compound `CN(C(=O)C12C3C4C1C1C2C3C41C(=O)C(C)(C)C)C(C)(C)C` (stereo not given), the TGI was > 100 µM.
As to `COc1ccc(OC)c(NC(=O)C(=O)C(C(C)=O)c2nc3ccc(Cl)cc3[nH]c2=O)c1` (stereo not given), the TGI is > 50 µM.
In the case of `N#CC(C(=N/O)/C(=N/O)C(C#N)c1ccc(Cl)cc1)c1ccc(Cl)cc1` (stereo not given), the TGI was > 100 µM.
